In ChEMBL document CHEMBL3044963, “Synthesis and in vitro anticancer activity of novel thiazacridine derivatives” (Med Chem Res, 2013):
Values after ≈ are worked out from the molar mass of the structure shown.

How the values were obtained:
[1] = tested on: MDA-MB-435; test: Anticancer activity against Homo sapiens (human) MDA-MB-435 cells assessed as inhibition of cell survival after 72 hr by MTT assay; type: functional, cell-based; conditions: MDA-MB-435, 72 h
[2] = tested on: MDA-MB-435; test: Anticancer activity against Homo sapiens (human) MDA-MB-435 cells assessed as growth inhibition at 25 ug/ml after 72 hr by MTT assay; type: functional; conditions: MDA-MB-435, 72 h, read-out: GI
[3] = tested on: SF-295; test: Anticancer activity against Homo sapiens (human) SF295 cells assessed as growth inhibition at 25 ug/ml after 72 hr by MTT assay; type: functional; conditions: SF-295, 72 h, read-out: GI
[4] = tested on: HCT-8; test: Anticancer activity against Homo sapiens (human) HCT8 cells assessed as inhibition of cell survival after 72 hr by MTT assay; type: functional, cell-based; conditions: HCT-8, 72 h
[5] = tested on: SF-295; test: Anticancer activity against Homo sapiens (human) SF295 cells assessed as inhibition of cell survival after 72 hr by MTT assay; type: functional, cell-based; conditions: SF-295, 72 h
[6] = tested on: HCT-8; test: Anticancer activity against Homo sapiens (human) HCT8 cells assessed as growth inhibition at 25 ug/ml after 72 hr by MTT assay; type: functional; conditions: HCT-8, 72 h, read-out: GI
[7] = tested on: HL-60; test: Anticancer activity against Homo sapiens (human) HL60 cells assessed as inhibition of cell survival after 72 hr by MTT assay; type: functional, cell-based; conditions: HL-60, 72 h
[8] = tested on: HCT-8; test: Anticancer activity against Homo sapiens (human) HCT8 cells assessed as growth inhibition at 0.3 ug/ml after 72 hr by MTT assay; type: functional; conditions: HCT-8, 72 h, read-out: GI
[9] = tested on: MDA-MB-435; test: Anticancer activity against Homo sapiens (human) MDA-MB-435 cells assessed as growth inhibition at 0.3 ug/ml after 72 hr by MTT assay; type: functional; conditions: MDA-MB-435, 72 h, read-out: GI
[10] = tested on: SF-295; test: Anticancer activity against Homo sapiens (human) SF295 cells assessed as growth inhibition at 0.3 ug/ml after 72 hr by MTT assay; type: functional; conditions: SF-295, 72 h, read-out: GI

SMILES | IC50 [1] [µg/mL] | inhibition of growth at 25 µg/mL [2] [%] | inhibition of growth at 25 µg/mL [3] [%] | IC50 [4] [µg/mL] | IC50 [5] [µg/mL] | inhibition of growth at 25 µg/mL [6] [%] | IC50 [7] [µg/mL] | inhibition of growth at 0.3 µg/mL [8] [%] | inhibition of growth at 0.3 µg/mL [9] [%] | inhibition of growth at 0.3 µg/mL [10] [%]
O=C1CSC(=O)N1Cc1c2ccccc2nc2ccccc12 | > 25 | 0 | 32.8 | > 25 | > 25 | 42 | > 25 | – | – | –
O=C1S/C(=C\c2c3ccccc3nc3ccccc23)C(=O)N1Cc1c2ccccc2nc2ccccc12 | 7.01 (≈ 14.1 µM) | 95.9 | 76.7 | 4.45 (≈ 8.94 µM) | 4.44 (≈ 8.92 µM) | 92.4 | > 25 | – | – | –
COc1ccc(/C=C2\SC(=O)N(Cc3c4ccccc4nc4ccccc34)C2=O)cc1 | > 25 | 84.2 | 59.5 | 19.3 (≈ 45.2 µM) | > 25 | 86.7 | > 25 | – | – | –
Cc1ccc(/C=C2\SC(=O)N(Cc3c4ccccc4nc4ccccc34)C2=O)cc1 | > 25 | 31.2 | 29.9 | > 25 | > 25 | 51.3 | > 25 | – | – | –
O=C1S/C(=C\c2ccc(Cl)cc2)C(=O)N1Cc1c2ccccc2nc2ccccc12 | > 25 | 0 | 31.3 | > 25 | > 25 | 37.8 | > 25 | – | – | –
O=C1S/C(=C\c2ccc(Br)cc2)C(=O)N1Cc1c2ccccc2nc2ccccc12 | > 25 | 85.3 | 62.2 | 20.6 (≈ 43.4 µM) | > 25 | 96.6 | 19.5 (≈ 41 µM) | – | – | –
CS(=O)(=O)c1ccc(/C=C2\SC(=O)N(Cc3c4ccccc4nc4ccccc34)C2=O)cc1 | > 25 | 12.9 | 44.3 | > 25 | > 25 | 64.3 | > 25 | – | – | –
COc1ccc(/C=C2\SC(=O)N(Cc3c4ccccc4nc4ccccc34)C2=O)cc1Br | > 25 | 53 | 48 | > 25 | > 25 | 72.5 | > 25 | – | – | –
COc1cccc2c1C(=O)c1c(O)c3c(c(O)c1C2=O)C[C@@](O)(C(=O)CO)C[C@@H]3O[C@H]1C[C@H](N)[C@H](O)[C@H](C)O1 [DOXORUBICIN] | 0.24 (≈ 0.442 µM) | – | – | – | 0.48 (≈ 0.883 µM) | – | – | 95.2 | 93.6 | 91.1
